Experimental data taken from US5716958A, “Amino acid derivative having anti-CCK activity” (Tobishi Pharmaceutical Co., Ltd., priority 1994, dated 1998).
Where two headings read alike, the source gives them in different places.

Columns and labels:
CCK-B = molecular target: T1, CCK-B (Rattus norvegicus, UniProt P30553); experiment: Central receptor (CCK-B) binding experiment, [^3 H]-CCK-8 binding inhibition; conditions: rat cerebrum homogenate, 0.2 nM [^3 H]-CCK-8, 60 minutes at 25° C
T1 construct: CCK-B receptors originating in the cell membrane of rat brain cells; from tissue; host or cells: rat cerebrum membranes (male rats, Japan Laboratory Animals)
T1 sequence (P30553 1-452): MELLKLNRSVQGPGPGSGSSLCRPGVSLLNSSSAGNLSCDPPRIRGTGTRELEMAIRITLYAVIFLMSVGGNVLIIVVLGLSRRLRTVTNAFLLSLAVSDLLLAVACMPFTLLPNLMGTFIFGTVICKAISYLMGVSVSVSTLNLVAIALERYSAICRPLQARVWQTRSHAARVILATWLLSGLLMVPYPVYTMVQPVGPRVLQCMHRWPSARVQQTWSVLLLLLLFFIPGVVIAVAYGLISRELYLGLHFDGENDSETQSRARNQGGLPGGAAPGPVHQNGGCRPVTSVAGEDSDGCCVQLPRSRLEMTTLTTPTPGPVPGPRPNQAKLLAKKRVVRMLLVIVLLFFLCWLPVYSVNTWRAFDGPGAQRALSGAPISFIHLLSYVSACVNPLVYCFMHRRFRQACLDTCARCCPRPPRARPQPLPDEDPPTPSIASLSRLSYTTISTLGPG
Method: (§1) Peripheral Receptor (CCK-A) and Central Receptor (CCK-B) Binding Experiment
(§2) The pancreas and cerebrum of male rats (Japan Laboratory Animals), which were sacrificed by decapitation and having body weights of 250-300 g, were extracted and immersed in cold Hepes buffer. After suspending these tissues using a Potter homogenizer, the suspension was centrifuged for 10 minutes at 48,000×g. The resulting residue was again suspended by addition of cold Hepes buffer and centrifuged for 10 minutes at 48,000×g. The resulting residue was transferred to cold incubation buffer.
(§3) A 1 ml aliquot of the homogenate was incubated for 60 minutes at 25° C. in the presence of 0.2 nM [^3 H]-CCK-8 and the test compound, in the presence of vehicle only (for measurement of 100% binding), or in the presence of 1 μM cold CCK-8 (for measurement of non-specific binding). Next, the reaction solution was promptly suction filtered using a Whatman glass GF/B filter immersed in Hepes buffer followed by washing the filter with cold Hepes buffer. Next, the glass filter was placed in Aquasol-2 followed by assay of radioactivity with a liquid scintillation counter.
(§4) The compound numbers shown in Table 3 indicate the target compounds according to the number of the embodiment.

CCK-A = molecular target: T2, CCK-A (Rattus norvegicus, UniProt P30551); experiment: Peripheral receptor (CCK-A) binding experiment, [^3 H]-CCK-8 binding inhibition; conditions: for CCK-B/CCK-A: ratio of IC50 values CCK-B/CCK-A (selectivity for CCK-A), 60 min
T2 construct: CCK-A receptors prepared from the cell membranes of rat pancreas; from tissue; host or cells: rat pancreas membranes (male rats, Japan Laboratory Animals)
T2 sequence (P30551 1-444): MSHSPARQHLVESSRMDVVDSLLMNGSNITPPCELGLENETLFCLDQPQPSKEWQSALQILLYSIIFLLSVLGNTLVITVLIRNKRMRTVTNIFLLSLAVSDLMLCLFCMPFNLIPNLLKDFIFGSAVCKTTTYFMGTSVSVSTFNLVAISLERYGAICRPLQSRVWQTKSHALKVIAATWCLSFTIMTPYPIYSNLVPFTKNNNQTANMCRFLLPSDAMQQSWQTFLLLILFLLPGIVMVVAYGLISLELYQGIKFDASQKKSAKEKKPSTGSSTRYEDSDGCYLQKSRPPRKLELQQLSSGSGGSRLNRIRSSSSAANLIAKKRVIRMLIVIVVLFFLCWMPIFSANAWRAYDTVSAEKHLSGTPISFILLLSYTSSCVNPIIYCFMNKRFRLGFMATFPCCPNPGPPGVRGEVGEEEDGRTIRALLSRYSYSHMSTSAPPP
Method: as §1, §2, §3, §4

[1] = tested on: extracted guinea pig ileum; experiment: Anti-CCK action in extracted guinea pig ileum (inhibition of CCK-8-induced contraction, Magnus tube); design: species or system guinea pig (Hartley strain, male); conditions: Cavia porcellus; contraction by 1×10^-8 M CCK-8, test compound added 5 minutes before; extracted ileum, 37° C; read-out: Active IC50
Method: Anti-cholecystokinin (CCK) Action in Extracted Guinea Pig Ileum After sacrificing a male guinea pig (Hartley strain) by striking and exsanguination, a piece of extracted ileum was suspended from a Magnus tube, while applying tension of 0.5 g, containing 30 ml of Tyrode's solution (NaCl 136.9 mM, KCl 2.68 mM, CaCl2 1.8 mM, MgCl2 1.05 mM, NaH2 PO4 0.42 mM, NaHCO3 11.9 mM and glucose 5.55 mM) and ventilated with mixed O2 gas containing 5% CO2 at 37° C. Changes in contraction were recorded on smoked paper for isotonicity via a bevel. The piece of ileum was allowed to stand undisturbed for 30 minutes and then contracted by addition 1×10^-8 M CCK-8. After washing, this was repeated several times. After the contraction by CCK-8 had stabilized, the test compound was added. Contraction resulting from addition of 1×10^-8 M CCK was then measured 5 minutes later. The contraction caused by CCK-8 and the contraction caused by CCK-8 in the presence of the test compound at varying concentrations were compared, and the resulting IC50 values (concentration of test substance at which contraction caused by CCK-8 is inhibited by 50%) are shown in Table 2. The compound numbers shown in Table 2 indicate the target compounds according to the numbers of the embodiments.

[2] = rat pancreas homogenate, 0.2 nM [^3 H]-CCK-8, 60 minutes at 25° C, read-out: CCK-A IC50
[3] = rat pancreas cell membranes, read-out: activity in binding experiment on CCK-A receptors prepared from the cell membranes of rat pancreas

Row | IC50 (CCK-B) | IC50 (CCK-A; [2]) | CCK-B/CCK-A (CCK-A) | IC50 (CCK-A; [3]) | SMILES | IC50 [1]
1 | 57000 nM | 4.3 nM | 13256 | 4.3 nM | O=C(N[C@@H](CSc1ncccc1C(=O)O)C(=O)N1CCC(C(c2ccccc2)c2ccccc2)CC1)c1cc2ccccc2[nH]1 [Compound 2-6, (R)-4-diphenylmethyl-1-[3-(3-carboxypyridin-2-yl)thio-2-(indol-2-yl)carbonylamino)propionylpiperidine] | 60 nM
2 | 42000 nM | 5 nM | 8400 | 5 nM | O=C(N[C@@H](CSc1ncccc1C(=O)O)C(=O)N1CCN(C(c2ccccc2)c2ccccc2)CC1)c1cc2cc(O)ccc2[nH]1 [Compound 12-2, (R)-1-[3-(3-carboxypyridin-2-yl)thio-2-(5-hydroxyindol-2-yl)carbonylamino]propionyl-4-diphenylmethylpiperazine] | 27 nM
3 | 69000 nM | 37 nM | 1865 |  | O=C(N[C@@H](CCn1nncc1C(=O)O)C(=O)N1CCN(C(c2ccccc2)c2ccccc2)CC1)c1cc2ccccc2[nH]1 [Compound 24-3, (S)-1-[4-(5-carboxy-1,2,3-triazol-1-yl)-2-(indol-2-yl)carbonylamino]butyryl-4-diphenylmethylpiperazine] | 120 nM
4 | 14000 nM | 5.1 nM | 2745 | 5.1 nM | O=C(N[C@@H](CSc1ncccc1C(=O)O)C(=O)N1CCN(C(c2ccccc2)c2ccccc2)CC1)c1cc2ccccc2[nH]1 [Compound 1-6, (R)-1-[3-(3-carboxypyridin-2-yl)thio-2-(indol-2-yl)carbonylamino]propionyl-4-diphenylmethylpiperazine] | 13 nM

Second part, the molecule before the results:

Row | SMILES | IC50 (CCK-B) | IC50 (CCK-A; [2]) | CCK-B/CCK-A (CCK-A) | IC50 (CCK-A; [3]) | IC50 [1]
5 | CC(C)C(C(C)C)N1CCN(C(=O)[C@H](CSc2ncccc2C(=O)O)NC(=O)c2cc3ccccc3[nH]2)CC1 [Compound 15-4, (R)-1-[3-(3-carboxypyridin-2-yl)thio-2-(indol-2-yl)carbonylamino]propionyl-4-diisopropylmethylpiperazine] | 8800 nM | 30 nM | 293 |  | 120 nM
6 | CCCCC(CCCC)N1CCN(C(=O)[C@H](CSc2ncccc2C(=O)O)NC(=O)c2cc3ccccc3[nH]2)CC1 [Compound 14-5, (R)-1-[3-(3-carboxypyridin-2-yl)thio-2-(indol-2-yl)carbonylamino]propionyl-4-(1-butylpentyl)piperazine] | 100000 nM | 170 nM | 588 |  | 260 nM
7 | O=C(N[C@@H](CSc1ncccc1C(=O)O)C(=O)N1CCN(C(c2ccc(F)cc2)c2ccc(F)cc2)CC1)c1cc2ccccc2[nH]1 [Compound 10-4, (R)-4-bis(4-fluorophenyl)methyl-1-[3-(3-carboxypyridin-2-yl)thio-2-(indol-2-yl)carbonylamino]propionylpiperazine] | 36000 nM | 6 nM | 6000 | 6 nM | 48 nM
8 | O=C(N[C@@H](Cc1ocnc1C(=O)O)C(=O)N1CCN(C(c2ccccc2)c2ccccc2)CC1)c1cc2ccccc2[nH]1 [Compound 27-5, (S)-1-[3-(4-carboxyoxazol-5-yl)-2-(indol-2-yl)carbonylamino]propionyl-4-diphenylmethylpiperazine] | 9600 nM | 180 nM | 53 |  | 190 nM
